Assay results taken from PubChem BioAssay (NCI).
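Five concentrations, 48 hours, 96-well plates. At the GI50, growth is halved. TGI denotes the concentration required for complete inhibition of growth.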

Assays:
Assay in all cases: NCI anticancer screen, dose series, 48 h
[1] = test system: OVCAR-8 ovarian
[2] = test system: OVCAR-3 ovarian
[3] = test system: NCI/ADR-RES ovarian
[4] = test system: SN12C renal
[5] = test system: HT29 colon
[6] = test system: CCRF-CEM leukemia
[7] = test system: RXF 393 renal
[8] = test system: SNB-75 CNS
[9] = test system: MCF7 breast
[10] = test system: SNB-19 CNS
[11] = test system: HOP-62 NSCLC
[12] = test system: HCT-15 colon
[13] = test system: SR leukemia
[14] = test system: MALME-3M melanoma
[15] = test system: SK-OV-3 ovarian
[16] = test system: NCI-H226 lung
[17] = test system: NCI-H460 lung
[18] = test system: A498 renal
[19] = test system: CAKI-1 renal
[20] = test system: SF-295 CNS
[21] = test system: DU-145 prostate
[22] = test system: NCI-H23 lung
[23] = test system: HCT-116 colon
[24] = test system: A549 NSCLC
[25] = test system: OVCAR-4 ovarian
[26] = test system: K-562 leukemia
[27] = test system: PC-3 prostate
[28] = test system: NCI-H522 lung
[29] = test system: M14 melanoma
[30] = test system: U251 CNS
[31] = test system: SK-MEL-28 melanoma
[32] = test system: SK-MEL-5 melanoma
[33] = test system: SF-268 CNS
[34] = test system: BT-549 breast
[35] = test system: UACC-62 melanoma
[36] = test system: EKVX NSCLC
[37] = test system: T-47D breast
[38] = test system: RPMI-8226 leukemia
[39] = test system: LOX IMVI melanoma
[40] = test system: IGROV1 ovarian
[41] = test system: ACHN renal
[42] = test system: COLO 205 colon
[43] = test system: KM12 colon
[44] = test system: UO-31 renal
[45] = test system: SF-539 CNS
[46] = test system: MOLT-4 leukemia
[47] = test system: SW-620 colon
[48] = test system: SK-MEL-2 melanoma
[49] = test system: HCC-2998 colon
[50] = test system: HOP-92 NSCLC
[51] = test system: UACC-257 melanoma
[52] = test system: MDA-MB-435
[53] = test system: OVCAR-5 ovarian
[54] = test system: TK-10 renal
[55] = test system: MDA-MB-231 breast
[56] = test system: HS 578T breast
[57] = test system: 786-0 renal

Oc1c(Cl)cc(Cl)c2ccc(Cn3cc(-c4cc(C(F)(F)F)cc(C(F)(F)F)c4)nn3)nc12
GI50 [1]: 2790 nM
TGI [1]: 9.94 µM
GI50 [2]: 1280 nM
TGI [2]: 2560 nM
GI50 [3]: 22.1 µM
TGI [3]: 71.6 µM
GI50 [4]: 3.11 µM
TGI [4]: 11.8 µM
GI50 [5]: 2040 nM
TGI [5]: 5.1 µM
GI50 [6]: 305 nM
TGI [6]: 5.49 µM
GI50 [7]: 555 nM
TGI [7]: 1970 nM
GI50 [8]: 1470 nM
TGI [8]: 8.09 µM
GI50 [9]: 526 nM
TGI [9]: 2100 nM
GI50 [10]: 8.28 µM
TGI [10]: 21.8 µM
GI50 [11]: 15.5 µM
TGI [11]: 30.7 µM
GI50 [12]: 1580 nM
TGI [12]: 3.55 µM
GI50 [13]: 714 nM
TGI [13]: 5.68 µM
GI50 [14]: 1470 nM
TGI [14]: 3.21 µM
GI50 [15]: 16.4 µM
TGI [15]: 30.1 µM
GI50 [16]: 4.93 µM
TGI [16]: 21 µM
GI50 [17]: 18.2 µM
TGI [17]: 35.2 µM
GI50 [18]: 2600 nM
TGI [18]: 10.8 µM
GI50 [19]: 1160 nM
TGI [19]: 2530 nM
GI50 [20]: 17 µM
TGI [20]: 31 µM
GI50 [21]: 1570 nM
TGI [21]: 3.06 µM
GI50 [22]: 3.05 µM
TGI [22]: 9.88 µM
GI50 [23]: 481 nM
TGI [23]: 1760 nM
GI50 [24]: 15.8 µM
TGI [24]: 31.6 µM
GI50 [25]: 1270 nM
TGI [25]: 2750 nM
GI50 [26]: 313 nM
TGI [26]: > 100 µM
GI50 [27]: 2810 nM
TGI [27]: 10.3 µM
GI50 [28]: 1250 nM
TGI [28]: 3.55 µM
GI50 [29]: 1610 nM
TGI [29]: 3.45 µM
GI50 [30]: 4.52 µM
TGI [30]: 16.8 µM
GI50 [31]: 1700 nM
TGI [31]: 3.48 µM
GI50 [32]: 2980 nM
TGI [32]: 10.7 µM
GI50 [33]: 4.22 µM
TGI [33]: 17.5 µM
GI50 [34]: 1840 nM
TGI [34]: 4.41 µM
GI50 [35]: 2150 nM
TGI [35]: 6.65 µM
GI50 [36]: 7.65 µM
TGI [36]: 21 µM
GI50 [37]: 1670 nM
TGI [37]: 5.55 µM
GI50 [38]: 1320 nM
TGI [38]: 4.74 µM
GI50 [39]: 317 nM
TGI [39]: 1280 nM
GI50 [40]: 1500 nM
TGI [40]: 3.47 µM
GI50 [41]: 1250 nM
TGI [41]: 2500 nM
GI50 [42]: 1350 nM
TGI [42]: 2890 nM
GI50 [43]: 10.5 µM
TGI [43]: 23.4 µM
GI50 [44]: 1600 nM
TGI [44]: 5.51 µM
GI50 [45]: 1530 nM
TGI [45]: 2940 nM
GI50 [46]: 823 nM
TGI [46]: 5.91 µM
GI50 [47]: 473 nM
TGI [47]: 1810 nM
GI50 [48]: 2710 nM
TGI [48]: 9.56 µM
GI50 [49]: 7.72 µM
TGI [49]: 21.4 µM
GI50 [50]: 1450 nM
TGI [50]: 4.03 µM
GI50 [51]: 1220 nM
TGI [51]: 2990 nM
GI50 [52]: 1820 nM
TGI [52]: 4.18 µM
GI50 [53]: 2900 nM
TGI [53]: 9.23 µM
GI50 [54]: 1820 nM
TGI [54]: 3.83 µM
GI50 [55]: 2000 nM
TGI [55]: 4.95 µM
GI50 [56]: 2980 nM
TGI [56]: 9.3 µM
GI50 [57]: 1970 nM
TGI [57]: 4.47 µM
